Measurements from PubChem BioAssay (NCI).
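Here, GI50 denotes the concentration required for 50% inhibition of growth. TGI: total growth inhibition.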

Assays:
Assay in all cases: NCI-60 cell line screen, 384-well format
HOP-62 NSCLC = system: HOP-62 NSCLC
IGROV1 ovarian = system: IGROV1 ovarian
MDA-MB-231 breast = system: MDA-MB-231 breast
UO-31 renal = system: UO-31 renal
NCI-H23 lung = system: NCI-H23 lung
HL-60(TB) leukemia = system: HL-60(TB) leukemia
NCI-H522 lung = system: NCI-H522 lung
BT-549 breast = system: BT-549 breast
SNB-75 CNS = system: SNB-75 CNS
HS 578T breast = system: HS 578T breast
SR leukemia = system: SR leukemia
HCC-2998 colon = system: HCC-2998 colon
SN12C renal = system: SN12C renal
NCI-H322M lung = system: NCI-H322M lung
SK-MEL-2 melanoma = system: SK-MEL-2 melanoma
SK-MEL-28 melanoma = system: SK-MEL-28 melanoma
KM12 colon = system: KM12 colon
UACC-62 melanoma = system: UACC-62 melanoma
U251 glioblastoma = system: U251 glioblastoma
SF-295 CNS = system: SF-295 CNS
K-562 leukemia = system: K-562 leukemia
A498 renal = system: A498 renal
COLO 205 colon = system: COLO 205 colon
NCI-H226 lung = system: NCI-H226 lung
T-47D breast = system: T-47D breast
SK-MEL-5 melanoma = system: SK-MEL-5 melanoma
RXF 393 renal = system: RXF 393 renal
MDA-MB-435 melanoma = system: MDA-MB-435 melanoma
M14 melanoma = system: M14 melanoma
NCI/ADR-RES ovarian = system: NCI/ADR-RES ovarian
LOX IMVI melanoma = system: LOX IMVI melanoma
SF-268 CNS = system: SF-268 CNS
OVCAR-3 ovarian = system: OVCAR-3 ovarian
OVCAR-4 ovarian = system: OVCAR-4 ovarian
TK-10 renal = system: TK-10 renal
MALME-3M melanoma = system: MALME-3M melanoma
CAKI-1 renal = system: CAKI-1 renal
MCF7 breast = system: MCF7 breast
ACHN renal = system: ACHN renal
NCI-H460 NSCLC = system: NCI-H460 NSCLC
HOP-92 NSCLC = system: HOP-92 NSCLC
SF-539 CNS = system: SF-539 CNS
A549 NSCLC = system: A549 NSCLC
SW-620 colon = system: SW-620 colon
SNB-19 CNS = system: SNB-19 CNS
UACC-257 melanoma = system: UACC-257 melanoma
HCT-15 colon = system: HCT-15 colon
MDA-MB-468 breast = system: MDA-MB-468 breast
HCT-116 colon = system: HCT-116 colon
786-0 renal = system: 786-0 renal
PC-3 prostate = system: PC-3 prostate
SK-OV-3 ovarian = system: SK-OV-3 ovarian
EKVX NSCLC = system: EKVX NSCLC
OVCAR-5 ovarian = system: OVCAR-5 ovarian
RPMI-8226 leukemia = system: RPMI-8226 leukemia
CCRF-CEM leukemia = system: CCRF-CEM leukemia
DU-145 prostate = system: DU-145 prostate
MOLT-4 leukemia = system: MOLT-4 leukemia

COc1ccc(C(=O)CC2(O)C(=O)Nc3c(Cl)ccc(Cl)c32)cc1 (stereo unspecified) showed a GI50 (HOP-62 NSCLC) of 1.26 µM, a TGI (HOP-62 NSCLC) of 47.8 µM and a GI50 (IGROV1 ovarian) of 2.78 µM. The TGI (IGROV1 ovarian) was greater than 100 µM, the GI50 (MDA-MB-231 breast) was 13.2 µM and the TGI (MDA-MB-231 breast) was greater than 100 µM. It also gave a GI50 (UO-31 renal) of 8.45 µM, a TGI (UO-31 renal) greater than 100 µM and a GI50 (NCI-H23 lung) of 1.97 µM. The TGI (NCI-H23 lung) was 12.1 µM, the GI50 (HL-60(TB) leukemia) was 0.237 µM and the TGI (HL-60(TB) leukemia) was 0.474 µM. The GI50 (NCI-H522 lung) was 0.264 µM, the TGI (NCI-H522 lung) was 0.587 µM and the GI50 (BT-549 breast) was 0.509 µM. For the same molecule, the TGI (BT-549 breast) was 10.9 µM, the GI50 (SNB-75 CNS) was 2.26 µM and the TGI (SNB-75 CNS) was 15.8 µM. The GI50 (HS 578T breast) was 1.09 µM, the TGI (HS 578T breast) was 2.76 µM and the GI50 (SR leukemia) was 0.113 µM. For the same molecule, the TGI (SR leukemia) was 0.256 µM, the GI50 (HCC-2998 colon) was 1.8 µM and the TGI (HCC-2998 colon) was 36.2 µM. It also gave a GI50 (SN12C renal) of 3.28 µM, a TGI (SN12C renal) of 20.8 µM and a GI50 (NCI-H322M lung) of 5.82 µM. It also gave a TGI (NCI-H322M lung) greater than 100 µM, a GI50 (SK-MEL-2 melanoma) of 0.864 µM and a TGI (SK-MEL-2 melanoma) of 3.02 µM. It also gave a GI50 (SK-MEL-28 melanoma) of 15.9 µM, a TGI (SK-MEL-28 melanoma) greater than 100 µM and a GI50 (KM12 colon) of 0.467 µM. The TGI (KM12 colon) was 25.6 µM, the GI50 (UACC-62 melanoma) was 0.38 µM and the TGI (UACC-62 melanoma) was 4.27 µM. It also gave a GI50 (U251 glioblastoma) of 1.13 µM, a TGI (U251 glioblastoma) of 12.5 µM and a GI50 (SF-295 CNS) of 1.55 µM. For the same molecule, the TGI (SF-295 CNS) was 8.41 µM, the GI50 (K-562 leukemia) was 0.354 µM and the TGI (K-562 leukemia) was 1.65 µM. The GI50 (A498 renal) was 3.72 µM, the TGI (A498 renal) was 46.7 µM and the GI50 (COLO 205 colon) was 0.646 µM. It also gave a TGI (COLO 205 colon) greater than 100 µM, a GI50 (NCI-H226 lung) of 6.25 µM and a TGI (NCI-H226 lung) of 50 µM. It also gave a GI50 (T-47D breast) of 9.17 µM, a TGI (T-47D breast) of 52 µM and a GI50 (SK-MEL-5 melanoma) of 0.663 µM. The TGI (SK-MEL-5 melanoma) was 5.85 µM, the GI50 (RXF 393 renal) was 0.96 µM and the TGI (RXF 393 renal) was 5.08 µM. The GI50 (MDA-MB-435 melanoma) was 0.207 µM, the TGI (MDA-MB-435 melanoma) was 0.431 µM and the GI50 (M14 melanoma) was 0.529 µM. The TGI (M14 melanoma) was 2.57 µM, the GI50 (NCI/ADR-RES ovarian) was 0.346 µM and the TGI (NCI/ADR-RES ovarian) was 1.36 µM. It also gave a GI50 (LOX IMVI melanoma) of 4.44 µM, a TGI (LOX IMVI melanoma) of 21 µM and a GI50 (SF-268 CNS) of 10.6 µM. It also gave a TGI (SF-268 CNS) of 31.3 µM, a GI50 (OVCAR-3 ovarian) of 0.382 µM and a TGI (OVCAR-3 ovarian) of 1.25 µM. It also gave a GI50 (OVCAR-4 ovarian) of 8.8 µM, a TGI (OVCAR-4 ovarian) of 85.6 µM and a GI50 (TK-10 renal) of 1.36 µM. It also gave a TGI (TK-10 renal) greater than 100 µM, a GI50 (MALME-3M melanoma) of 13.9 µM and a TGI (MALME-3M melanoma) of 45.4 µM. The GI50 (CAKI-1 renal) was 0.679 µM, the TGI (CAKI-1 renal) was greater than 100 µM and the GI50 (MCF7 breast) was 1.07 µM. It also gave a TGI (MCF7 breast) of 21 µM, a GI50 (ACHN renal) of 7.9 µM and a TGI (ACHN renal) greater than 100 µM. It also gave a GI50 (NCI-H460 NSCLC) of 0.477 µM, a TGI (NCI-H460 NSCLC) of 2.48 µM and a GI50 (HOP-92 NSCLC) of 9.02 µM. The TGI (HOP-92 NSCLC) was 54.5 µM, the GI50 (SF-539 CNS) was 1.68 µM and the TGI (SF-539 CNS) was 5.35 µM. The GI50 (A549 NSCLC) was 2.1 µM, the TGI (A549 NSCLC) was greater than 100 µM and the GI50 (SW-620 colon) was 0.452 µM. The TGI (SW-620 colon) was greater than 100 µM, the GI50 (SNB-19 CNS) was 2.32 µM and the TGI (SNB-19 CNS) was 32.8 µM. It also gave a GI50 (UACC-257 melanoma) of 6.69 µM, a TGI (UACC-257 melanoma) of 21.6 µM and a GI50 (HCT-15 colon) of 0.369 µM. The TGI (HCT-15 colon) was 14.4 µM, the GI50 (MDA-MB-468 breast) was 0.215 µM and the TGI (MDA-MB-468 breast) was 0.571 µM. For the same molecule, the GI50 (HCT-116 colon) was 0.568 µM, the TGI (HCT-116 colon) was 32.1 µM and the GI50 ([…]-0 renal) was 3.61 µM. For the same molecule, the TGI (786-0 renal) was 21.7 µM, the GI50 (PC-3 prostate) was 2.27 µM and the TGI (PC-3 prostate) was greater than 100 µM. It also gave a GI50 (SK-OV-3 ovarian) of 2.56 µM, a TGI (SK-OV-3 ovarian) of 95.6 µM and a GI50 (EKVX NSCLC) of 3.81 µM. For the same molecule, the TGI (EKVX NSCLC) was 52 µM, the GI50 (OVCAR-5 ovarian) was 9.83 µM and the TGI (OVCAR-5 ovarian) was greater than 100 µM. It also gave a GI50 (RPMI-8226 leukemia) of 1.17 µM, a TGI (RPMI-8226 leukemia) of 2.56 µM and a GI50 (CCRF-CEM leukemia) of 0.656 µM. It also gave a TGI (CCRF-CEM leukemia) of 1.9 µM, a GI50 (DU-145 prostate) of 2.79 µM and a TGI (DU-145 prostate) of 12.1 µM. It also gave a GI50 (MOLT-4 leukemia) of 0.216 µM and a TGI (MOLT-4 leukemia) of 0.426 µM.
